Several values for one entry are separate records, joined by “and”; a condition that tells them apart may be missing. Identical values can stand only once. Like-named read-outs stand apart in the source and are kept apart here.
Test: Preliminary pharmacokinetics in SD rats
Assay type: in vivo
Parameters: AUC (0-t), individual rats No1-No3 / AUC (0-∞), individual rats No1-No3: concentration or dose not given beside the values
Description: We administered BH by gavage and intravenous administration to SD rats (male, 200–220 g, n = 6) after they had fasted for 12 h. For oral gavage, the BH was dissolved in DMSO/0.5% CMC-Na (5/95, v/v/), and for intravenous administration, it was dissolved in DMSO/0.9% NaCl (5/95, v/v/), and then the blood samples were collected at intervals to determine the pharmacokinetic (PK) profiles of SD rats.

## CC1=CC(=O)[C@@H](O)[C@]2(C)[C@H]3[C@@H](O)[C@H](O)[C@@]4(CO)OC[C@@]35[C@@H](C[C@@H]12)OC(=O)[C@H](O)[C@]54O [BH, Bruceine H]
male, SD, rat, plasma, po, 10 mg/kg, p.o. 10 mg/kg, 4 h, read-out: Concentration of BH in rat plasma, individual rats No1-No3
  concentration at 4 h: 115 ng/mL
male, SD, rat, plasma, po, 10 mg/kg, p.o. 10 mg/kg, 6 h, read-out: Concentration of BH in rat plasma, Mean
  concentration at 6 h: 80.5 ng/mL
male, SD, rat, plasma, po, 10 mg/kg, p.o. 10 mg/kg, 6 h, read-out: Concentration of BH in rat plasma, individual rats No1-No3
  concentration at 6 h: 97.6 ng/mL
male, SD, rat, plasma, po, 10 mg/kg, p.o. 10 mg/kg, 8 h, read-out: Concentration of BH in rat plasma, Mean
  concentration at 8 h: 42.3 ng/mL
male, SD, rat, plasma, po, 10 mg/kg, p.o. 10 mg/kg, 8 h, read-out: Concentration of BH in rat plasma, individual rats No1-No3
  concentration at 8 h: 50.4 ng/mL
male, SD, rat, plasma, po, 10 mg/kg, p.o. 10 mg/kg, 12 h, read-out: Concentration of BH in rat plasma, Mean
  concentration at 12 h: 16.4 ng/mL
male, SD, rat, plasma, po, 10 mg/kg, p.o. 10 mg/kg, 24 h, read-out: Concentration of BH in rat plasma, Mean
  concentration at 24 h: 3.33 ng/mL
male, SD, rat, plasma, po, 10 mg/kg, rat, p.o., read-out: AUC (0-t), Mean
  AUC(0-t): 961 ng·h/mL
male, SD, rat, plasma, po, 10 mg/kg, rat, p.o., read-out: AUC (0-t), individual rats No1-No3
  AUC(0-t): 1070 ng·h/mL
male, SD, rat, plasma, po, 10 mg/kg, rat, p.o., read-out: AUC (0-∞), Mean
  AUC(0-inf): 976 ng·h/mL
male, SD, rat, plasma, po, 10 mg/kg, rat, p.o., read-out: C_last, Mean
  concentration at 24 h: 2 ng/mL
male, SD, rat, plasma, po, 10 mg/kg, rat, p.o., read-out: Cmax, Mean
  Cmax: 147 ng/mL
male, SD, rat, plasma, po, 10 mg/kg, rat, p.o., read-out: Cmax, individual rats No2, No3
  Cmax: 145 ng/mL
male, SD, rat, plasma, po, 10 mg/kg, rat, p.o., read-out: MRT (0-∞), Mean
  MRT inf: 5.92 h
male, SD, rat, plasma, po, 10 mg/kg, rat, p.o., read-out: MRT (0-∞), individual rats No1-No3
  MRT inf: 5.5 h
male, SD, rat, plasma, po, 10 mg/kg, rat, p.o., read-out: t1/2z, Mean (converted)
  half-life: 3.35 h
male, SD, rat, plasma, po, 10 mg/kg, rat, p.o., read-out: λz, Mean (converted)
  k el: 6.89e-05 s⁻¹
male, Sprague-Dawley (SD), rat, plasma, iv, 2 mg/kg, rat, i.v., read-out: AUC (0-∞), Mean
  AUC(0-inf): 1050 ng·h/mL
male, Sprague-Dawley (SD), rat, plasma, iv, 2 mg/kg, rat, i.v., read-out: MRT (0-t), Mean
  MRT last: 5.01 h
male, Sprague-Dawley (SD), rat, plasma, iv, 2 mg/kg, rat, i.v., read-out: MRT (0-t), individual rats No1-No3
  MRT last: 4.99 h
male, Sprague-Dawley (SD), rat, plasma, po, 10 mg/kg, rat, p.o., read-out: AUC (0-∞), individual rats No1-No3
  AUC(0-inf): 1070 ng·h/mL
male, Sprague-Dawley (SD), rat, plasma, po, 10 mg/kg, rat, p.o., read-out: MRT (0-t), Mean
  MRT last: 5.54 h
male, Sprague-Dawley (SD), rat, plasma, po, 10 mg/kg, rat, p.o., read-out: MRT (0-t), individual rats No1-No3
  MRT last: 5.47 h
male, rat, plasma, SD rats, 10 mg/kg po vs 2 mg/kg iv, read-out: Oral bioavailability (F)
  bioavailability: 20.4%
male, rat, plasma, SD rats, 10 mg/kg po, read-out: Time of maximum concentration (T max)
  Tmax: 1 h
p.o. 10 mg/kg, 0.25 h, 10 mg/kg
  Concentration of BH in rat plasma, individual rats No1-No3: 10.5 ng/mL and 11.3 ng/mL
p.o. 10 mg/kg, 0.5 h, 10 mg/kg
  Concentration of BH in rat plasma, individual rats No1-No3: 55.4 ng/mL and 50.6 ng/mL
p.o. 10 mg/kg, 0.75 h, 10 mg/kg
  Concentration of BH in rat plasma, individual rats No1-No3: 98.5 ng/mL and 104.2 ng/mL
p.o. 10 mg/kg, 1 h, 10 mg/kg
  Concentration of BH in rat plasma, individual rats No1-No3: 145.3 ng/mL and 140.1 ng/mL
p.o. 10 mg/kg, 2 h, 10 mg/kg
  Concentration of BH in rat plasma, individual rats No1-No3: 117.7 ng/mL and 120.4 ng/mL
p.o. 10 mg/kg, 4 h, 10 mg/kg
  Concentration of BH in rat plasma, individual rats No1-No3: 99.4 ng/mL and 89.6 ng/mL
p.o. 10 mg/kg, 6 h, 10 mg/kg
  Concentration of BH in rat plasma, individual rats No1-No3: 75.3 ng/mL and 68.5 ng/mL
p.o. 10 mg/kg, 8 h, 10 mg/kg
  Concentration of BH in rat plasma, individual rats No1-No3: 35.4 ng/mL and 41.2 ng/mL
p.o. 10 mg/kg, 12 h, 10 mg/kg
  Concentration of BH in rat plasma, individual rats No1-No3: 16.8 ng/mL and 10.4 ng/mL and 22.1 ng/mL
p.o. 10 mg/kg, 24 h, 10 mg/kg
  Concentration of BH in rat plasma, individual rats No1-No3: 2.8 ng/mL and 1.8 ng/mL and 5.4 ng/mL
rat, i.v.
  AUC (0-t), individual rats No1-No3: 883.761 ng·h/mL and 981.633 ng·h/mL
  AUC (0-∞), individual rats No1-No3: 977.839 ng·h/mL and 1158.837 ng·h/mL
  AUMC (0-t), Mean: 4747.166 h*h*ng/mL
  AUMC (0-t), individual rats No1-No3: 4816.632 h*h*ng/mL and 3928.001 h*h*ng/mL and 5496.865 h*h*ng/mL
  AUMC (0-∞), Mean: 9005.111 h*h*ng/mL
  AUMC (0-∞), individual rats No1-No3: 6587.862 h*h*ng/mL and 7623.703 h*h*ng/mL and 12803.767 h*h*ng/mL
  C0, Mean: 516.231 ng/mL
  C0, individual rats No1-No3: 543.621 ng/mL and 515.672 ng/mL and 489.401 ng/mL
  CLz, individual rats No1-No3: 34.08878 mL/min/kg and 28.76447 mL/min/kg
  C_last, individual rats No1-No3: 6.155 ng/mL and 10.282 ng/mL
  MRT (0-t), individual rats No1-No3: 4.445 h and 5.6 h
  MRT (0-∞), individual rats No1-No3: 7.796 h and 11.049 h
  R_AUC (t/∞), Mean: 89.967%
  R_AUC (t/∞), individual rats No1-No3: 94.8% and 90.4% and 84.7%
  VRT (0-t), Mean: 33.805 h^2
  VRT (0-t), individual rats No1-No3: 30.325 h^2 and 31.091 h^2 and 40 h^2
  VRT (0-∞), Mean: 157.741 h^2
  VRT (0-∞), individual rats No1-No3: 73.322 h^2 and 156.114 h^2 and 243.787 h^2
  Vz, individual rats No1-No3: 31.260167 L/kg and 29.744277 L/kg
  t1/2z, individual rats No1-No3: 10.592 h and 11.943 h
  λz, individual rats No1-No3: 0.065 h⁻¹ and 0.058 h⁻¹
rat, p.o.
  AUC (0-t), individual rats No1-No3: 858.063 ng·h/mL and 958.688 ng·h/mL
  AUC (0-∞), individual rats No1-No3: 858.682 ng·h/mL and 1001.201 ng·h/mL
  AUMC (0-t), Mean: 5336.656 h*h*ng/mL
  AUMC (0-t), individual rats No1-No3: 5831.875 h*h*ng/mL and 4275.963 h*h*ng/mL and 5902.131 h*h*ng/mL
  AUMC (0-∞), Mean: 5811.834 h*h*ng/mL
  AUMC (0-∞), individual rats No1-No3: 5879.636 h*h*ng/mL and 4292.741 h*h*ng/mL and 7263.126 h*h*ng/mL
  CLz, individual rat No1: 155.9614 mL/min/kg
  C_last, individual rats No1-No3: 0.506 ng/mL and 0.202 ng/mL and 5.305 ng/mL
  Cmax, individual rats No2, No3: 140.1 ng/mL
  MRT (0-t), individual rats No1-No3: 4.983 h and 6.156 h
  MRT (0-∞), individual rats No1-No3: 4.999 h and 7.254 h
  R_AUC (t/∞), Mean: 98.5%
  R_AUC (t/∞), individual rats No1-No3: 99.8% and 99.9% and 95.8%
  VRT (0-t), Mean: 19.306 h^2
  VRT (0-t), individual rats No1-No3: 17.271 h^2 and 15.275 h^2 and 25.371 h^2
  VRT (0-∞), Mean: 29.291 h^2
  VRT (0-∞), individual rats No1-No3: 18.047 h^2 and 15.623 h^2 and 54.204 h^2
  Vz, individual rat No1: 32.202018 L/kg
  t1/2z, individual rats No1-No3: 2.385 h and 2.122 h and 5.553 h
  λz, individual rats No1-No3: 0.291 h⁻¹ and 0.327 h⁻¹ and 0.125 h⁻¹

Reference: PMC9024338, “Bruceine H Mediates EGFR-TKI Drug Persistence in NSCLC by Notch3-Dependent β-Catenin Activating FOXO3a Signaling” (Frontiers in Oncology, 2022)
